Data published in patent publication US4758555A, “Method for treating convulsions and epilepsy with organic copper compounds” (priority 1986, dated 1988).
Entries after “also recorded” stand apart in the source; their conditions may differ.

Experiments:
Format in all cases: in vivo, male Carworth Farms #1 mice or Sprague-Dawley rats
[1] = Anticonvulsant activity, both or unspecified seizure models; conditions: for Anticonvulsant activity (in words): running text; for Time of peak activity (Phase II): Table X, IP, challenge time
[2] = Maximal Electroshock Seizure Test; conditions: for ED50 for inhibition of seizures, MES (Phase II) / Lowest effective dose, MES (Phase I): Table X; for ED50 for inhibition of seizures, MES (Phase II): at time of peak activity; for ED50: ip, read-out: ED50 for inhibition of seizures, MES (Phase II); for Lowest active dose, MES (Phase I): Table V
[3] = Subcutaneous Pentylenetetrazol (Metrazol) Seizure Threshold Test; conditions: for ED50: ip, read-out: ED50 for inhibition of seizures, Metrazol (Phase II); for Lowest active dose, Metrazol (Phase I): Table V
[4] = Table X, IP, challenge time 30 min
[5] = Table X, IP, challenge time 4 hrs
[6] = Table X, SC, challenge time 30 min
[7] = Table X, SC, challenge time 4 hrs

Compound: O.O.O=C([O-])c1cc(Cl)cc(Cl)c1O.O=C([O-])c1cc(Cl)cc(Cl)c1O.[Cu+2] [Cu(II)(3,5-dichlorosalicylate)2 (H2 O)2]
- Anticonvulsant activity (in words) [1]: effective in preventing both the Maximal Electroshock and Metrazol-inducedseizures in Phase I studies
- Anticonvulsant activity, Maximal Electroshock (Phase I) ([2]; Table II, SC): I

Compound: O.O.O.O=C1[N-]C(=O)C(c2ccccc2)(c2ccccc2)N1.O=C1[N-]C(=O)C(c2ccccc2)(c2ccccc2)N1.[Cu+2] [Cu(II)(Dilantin)2 (H2 O)3]
- Lowest effective dose, Metrazol (Phase I) [3, 4]: 100 milligrams per kilogram of bod
- Lowest effective dose, Metrazol (Phase I) [3, 5]: 100 milligrams per kilogram of bod
- Onset and duration of anticonvulsant action (in words) [1]: rapid onset and prolonged duration in inhibiting only Maximal Electroshock-induced seizures
- Time of peak effect ([1]; Phase II): 4 h
- Time of peak activity (Phase II) [1]: 4 h
- Anticonvulsant activity (in words) [1]: did not potentiate but did block both types of seizures
- ED50 for inhibition of seizures, MES (Phase II) ([2]; IP): 13 mg/kg
- Lowest effective dose, MES (Phase I) ([2]; IP, challenge time 30 min): 30 milligrams per kilogram of bod
- Lowest effective dose, MES (Phase I) ([2]; IP, challenge time 4 hrs): 30 milligrams per kilogram of bod

Compound: O=C1Nc2ccc(Cl)cc2C(c2ccccc2Cl)=NC1O (centres unmarked) [Lorazepam, reference compound]
- ED50 ([3]; Mus musculus): 0.02 mg/kg
- Time of peak activity (Phase II) [1]: 1 h
- ED50 ([2]; Mus musculus): 24 mg/kg

Compound: O.O.O.O=C([O-])c1cc(Br)cc(Br)c1O.O=C([O-])c1cc(Br)cc(Br)c1O.[Cu+2] [Cu(II)(3,5-dibromosalicylate)2 (H2 O)3]
- Anticonvulsant activity (in words) [1]: effective in preventing both the Maximal Electroshock and Metrazol-inducedseizures in Phase I studies

Compound: CC(C)(C)c1ccc(C(=O)[O-])c(O)c1.CC(C)(C)c1ccc(C(=O)[O-])c(O)c1.CC(C)(C)c1ccc(C(=O)[O-])c(O)c1.CC(C)(C)c1ccc(C(=O)[O-])c(O)c1.O.[Cu+2].[Cu+2] [Cu(II)2 (4-tertiarybutylsalicylate)2.1/2H2 O]
- Anticonvulsant activity (in words) [1]: effective at the higher doses studied and for prolonged periods of up to 4 hours
- Anticonvulsant activity, Maximal Electroshock (Phase I) ([2]; Table II, SC): I

Compound: CCC1(CCC(C)C)C(=O)[N-]C(=O)NC1=O.CCC1(CCC(C)C)C(=O)[N-]C(=O)NC1=O.CCC1(CCC(C)C)C(=O)[N-]C(=O)NC1=O.CCC1(CCC(C)C)C(=O)[N-]C(=O)NC1=O.O.O.O.O.O.[Cu+2].[Cu+2] [Cu(II)(Amobarbital)2 (H2 O)2.5]
- ED50 for inhibition of seizures, Metrazol (Phase II) ([3]; Table X, IP, at time of peak activity): 87 mg/kg
- Lowest effective dose, Metrazol (Phase I) [3, 4]: 30 milligrams per kilogram of bod
- Lowest effective dose, Metrazol (Phase I) [3, 5]: I
- Time of peak activity (Phase II) [1]: 0.5 h
- ED50 for inhibition of seizures, MES (Phase II) ([2]; IP): 87 mg/kg
- Lowest effective dose, MES (Phase I) ([2]; IP, challenge time 30 min): 300 milligrams per kilogram of bod
- Lowest effective dose, MES (Phase I) ([2]; IP, challenge time 4 hrs): I

Compound: CC(C)c1cc(C(=O)[O-])c(O)c(C(C)C)c1.CC(C)c1cc(C(=O)[O-])c(O)c(C(C)C)c1.[Cu+2] [Cu(II)(3,5-diisopropylsalicylate)2]
- Anticonvulsant activity (in words) [1]: effective in preventing both the Maximal Electroshock and Metrazol-inducedseizures in Phase I studies

Compound: N[C@@H](Cc1c[nH]c2ccccc12)C(=O)[O-].N[C@@H](Cc1c[nH]c2ccccc12)C(=O)[O-].[Cu+2] [Cu(II)(L-tryptophanate)2]
- Anticonvulsant activity (in words) [1]: found to have anticonvulsant activity

Compound: CCC1(CCC(C)C)C(=O)NC(=O)NC1=O [Amobarbital, reference compound]
- minimal effective dose ([3]; Mus musculus, 0.5 h, read-out: Lowest effective dose, Metrazol (Phase I)): 100 mg/kg
- ED50 ([3]; Mus musculus): 53 mg/kg
- Lowest effective dose, Metrazol (Phase I) [3, 5]: I
- Time of peak activity (Phase II) [1]: 0.25 h
- minimal effective dose ([2]; Mus musculus, 0.5 h, read-out: Lowest effective dose, MES (Phase I)): 30 mg/kg
- ED50 ([2]; Mus musculus): 45 mg/kg
- Lowest effective dose, MES (Phase I) ([2]; IP, challenge time 4 hrs): I

Compound: N[C@@H](CO)C(=O)[O-].N[C@@H](CO)C(=O)[O-].[Cu+2] [Cu(II)(L-serinate)2]
- Anticonvulsant activity (in words) [1]: found to have anticonvulsant activity

Compound: CCC1(c2ccccc2)C(=O)NC(=O)NC1=O [Phenobarbital, reference compound]
- ED50 ([3]; Mus musculus): 13 mg/kg
- Time of peak activity (Phase II) [1]: 1 h
- ED50 ([2]; Mus musculus): 22 mg/kg

Compound: CN1C(=O)CN=C(c2ccccc2)c2cc(Cl)ccc21.CN1C(=O)CN=C(c2ccccc2)c2cc(Cl)ccc21.[Cl-].[Cl-].[Cu+2] [Cu(II)(Diazepam)2 (Cl)2]
- Lowest effective dose, Metrazol (Phase I) [3, 4]: 30 milligrams per kilogram of bod
- Lowest effective dose, Metrazol (Phase I) [3, 5]: 30 milligrams per kilogram of bod
- Onset and duration of anticonvulsant action (in words) [1]: rapid onset of action and prolonged duration following intraperitoneal administration
- Lowest effective dose, MES (Phase I) ([2]; IP, challenge time 30 min): 30 milligrams per kilogram of bod
- Lowest effective dose, MES (Phase I) ([2]; IP, challenge time 4 hrs): 30 milligrams per kilogram of bod

Compound: Cu(II)2 (valproate)4
- Lowest effective dose, Metrazol (Phase I) [3, 4]: 100 milligrams per kilogram of bod
- Lowest effective dose, Metrazol (Phase I) [3, 5]: I
- Lowest effective dose, Metrazol (Phase I) [3, 6]: I
- Lowest effective dose, Metrazol (Phase I) [3, 7]: 600 milligrams per kilogram of bod
- Protection against Metrazol-induced seizures (in words) ([3]; running text): effective in protecting against Metrazol-induced seizures; also recorded: some inhibitory activity against Metrazol-induced seizures
- Onset and duration of anticonvulsant action (in words) [1]: rapid onset and short duration of activity following intraperitoneal administration; also recorded: prolonged onset of activity at a higher dose following subcutaneous administration
- Lowest effective dose, MES (Phase I) ([2]; IP, challenge time 30 min): I
- Lowest effective dose, MES (Phase I) ([2]; IP, challenge time 4 hrs): I
- Lowest effective dose, MES (Phase I) ([2]; SC, challenge time 30 min): I
- Lowest effective dose, MES (Phase I) ([2]; SC, challenge time 4 hrs): I
- Protection against Maximal Electroshock-induced seizures (in words) ([2]; running text): ineffective against Maximal Electroshock seizures

Compound: O.O=C1Nc2ccc(Cl)cc2C(c2ccccc2Cl)=NC1O.O=C1Nc2ccc(Cl)cc2C(c2ccccc2Cl)=NC1O.[Cl-].[Cl-].[Cu+2] (centres unmarked) [Cu(II)(Lorazepam)2 (Cl)2 H2 O]
- Lowest effective dose, Metrazol (Phase I) [3, 4]: I
- Lowest effective dose, Metrazol (Phase I) [3, 5]: I
- Lowest effective dose, Metrazol (Phase I) [3, 6]: I
- Lowest effective dose, Metrazol (Phase I) [3, 7]: I
- Onset and duration of anticonvulsant action (in words) [1]: rapid onset of action and prolonged duration following intraperitoneal and subcutaneous administration
- Anticonvulsant activity (in words) [1]: appears to be quite active
- Lowest effective dose, MES (Phase I) ([2]; IP, challenge time 30 min): 20 milligrams per kilogram of bod
- Lowest effective dose, MES (Phase I) ([2]; IP, challenge time 4 hrs): 30 milligrams per kilogram of bod
- Lowest effective dose, MES (Phase I) ([2]; SC, challenge time 30 min): 20 milligrams per kilogram of bod
- Lowest effective dose, MES (Phase I) ([2]; SC, challenge time 4 hrs): 100 milligrams per kilogram of bod

Compound: O=C([O-])c1ccccc1OC(=O)C12CC3CC(CC(C3)C1)C2.O=C([O-])c1ccccc1OC(=O)C12CC3CC(CC(C3)C1)C2.O=C([O-])c1ccccc1OC(=O)C12CC3CC(CC(C3)C1)C2.O=C([O-])c1ccccc1OC(=O)C12CC3CC(CC(C3)C1)C2.[Cu+2].[Cu+2] [Cu(II)2 (adamantylsalicylate)4]
- Anticonvulsant activity (in words) [1]: anticonvulsant activity at 30 minutes following subcutaneous injection at 30 and 300 mg/kg
- Anticonvulsant activity, Maximal Electroshock (Phase I) ([2]; Table I, SC): I

Compound: CC(=O)Oc1c(I)cc(I)cc1C(=O)[O-].CC(=O)Oc1c(I)cc(I)cc1C(=O)[O-].O.O.O.[Cu+2] [Cu(II)2 (3,5-diiodoacetylsalicylate)4 (H2 O)6]
- Anticonvulsant activity (in words) [1]: effective in protecting against both models of seizure
- Anticonvulsant activity, Maximal Electroshock (Phase I) ([2]; Table I, IP): I

Compound: Cc1ncc(CO)c(C=NC(C(=O)[O-])C(C)O)c1[O-].O.O.[Cu+2] [Cu(II)Pyridoxylidene-L-threoninate(H2 O)2]
- Lowest active dose, Metrazol (Phase I) ([3]; IP, challenge time 30 min): 30 mg/kg of body weight
- Lowest active dose, Metrazol (Phase I) ([3]; IP, challenge time 4 hrs): 30 mg/kg of body weight
- Anticonvulsant activity (in words) [1]: more effective but only protected against the Metrazol-induced seizure
- Lowest active dose, MES (Phase I) ([2]; IP, challenge time 30 min): I
- Lowest active dose, MES (Phase I) ([2]; IP, challenge time 4 hrs): I

Compound: CC(C)(C)c1cc(C(=O)[O-])c(O)c(C(C)(C)C)c1.CC(C)(C)c1cc(C(=O)[O-])c(O)c(C(C)(C)C)c1.[Cu+2] [Cu(II)(3,5-ditertiarybutylsalicylate)2]
- Anticonvulsant activity (in words) [1]: effective at the higher doses studied and for prolonged periods of up to 4 hours
- Anticonvulsant activity (in words) ([1]; listed as 3,5-ditertiarybutylsalicylate): effective in preventing both the Maximal Electroshock and Metrazol-inducedseizures in Phase I studies

Compound: CC(=O)Oc1ccccc1C(=O)[O-].CC(=O)Oc1ccccc1C(=O)[O-].CC(=O)Oc1ccccc1C(=O)[O-].CC(=O)Oc1ccccc1C(=O)[O-].[Cu+2].[Cu+2] [Cu(II)2 (acetylsalicylate)4]
- Anticonvulsant activity (in words) [1]: activity at 30 minutes, 6 hours and 8 hours following subcutaneous injection of the entire range of doses studied
- Anticonvulsant activity, Maximal Electroshock (Phase I) ([2]; Table I, SC): I

Compound: CC(=O)Oc1c(Br)cc(Br)cc1C(=O)[O-].CC(=O)Oc1c(Br)cc(Br)cc1C(=O)[O-].[Cu+2] [Cu(II)2 (3,5-dibromoacetylsalicylate)4]
- Anticonvulsant activity, Metrazol (Phase I) ([3]; Table I, SC): I
- Anticonvulsant activity (in words) [1]: effective in protecting against both models of seizure

Compound: O=C([O-])c1ccccc1O.O=C([O-])c1ccccc1O.[Cu+2].c1ccncc1.c1ccncc1 [Cu(II)(salicylate)2 (pyridine)2]
- Onset and duration of anticonvulsant action (in words) [1]: activity representative of a compound with rapid onset
- Anticonvulsant activity, Maximal Electroshock (Phase I) ([2]; Table II, IP): I

Compound: CC(C)C[C@H](N)C(=O)[O-].CC(C)C[C@H](N)C(=O)[O-].[Cu+2] [Cu(II)(L-leucinate)2]
- Anticonvulsant activity (in words) [1]: found to have anticonvulsant activity

Compound: Cu(II)(L-glutamate)2
- Anticonvulsant activity (in words) [1]: found to have anticonvulsant activity

Compound: Cu(II)2 (benzoate)4
- Anticonvulsant activity (in words) [1]: effective in protecting against both Maximal Electroshock and Metrazol-induced seizures
